The values below are quoted from earlier work in patent US6726673B1, “Methods and apparatus for improved administration of testosterone pharmaceuticals” (Zars, Inc., priority 1999, dated 2004).

The conditions of the series: following intramuscular injection, absorbed gradually from the lipid tissue phase at the injection site.

`CCCCCCC(=O)O[C@H]1CC[C@H]2[C@@H]3CCC4=CC(=O)CC[C@]4(C)[C@H]3CC[C@]12C` [testosterone enanthate]: the duration of action was 2-4 weeks.
